Test [1] in a line: HEp-2 cell cytotoxicity, dose response, cytotoxicity control for RSV inhibitor project, HTS (AID 2410). In kind it is functional. Particulars: human respiratory syncytial virus.
Another test concerns the target Cytochrome P450 2C9 (Homo sapiens, UniProt P11712).
The next test deals with Cytochrome P450 2C19 (Homo sapiens, UniProt P33261). As to the kind of experiment: Cytochrome panel assay with activity outcomes. Panel member name: p450-cyp2c19 Compounds with AC50 equal or less than 10 uM are considered active. In kind it is functional. As to conditions: read-out: AC50.
The target of another test is T1, Cytochrome P450 1A2 (Homo sapiens, UniProt P05177).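 Note: PubChem cytochrome P450 panel assay, CYP1A2 panel member.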
T1 sequence (P05177 whole entry): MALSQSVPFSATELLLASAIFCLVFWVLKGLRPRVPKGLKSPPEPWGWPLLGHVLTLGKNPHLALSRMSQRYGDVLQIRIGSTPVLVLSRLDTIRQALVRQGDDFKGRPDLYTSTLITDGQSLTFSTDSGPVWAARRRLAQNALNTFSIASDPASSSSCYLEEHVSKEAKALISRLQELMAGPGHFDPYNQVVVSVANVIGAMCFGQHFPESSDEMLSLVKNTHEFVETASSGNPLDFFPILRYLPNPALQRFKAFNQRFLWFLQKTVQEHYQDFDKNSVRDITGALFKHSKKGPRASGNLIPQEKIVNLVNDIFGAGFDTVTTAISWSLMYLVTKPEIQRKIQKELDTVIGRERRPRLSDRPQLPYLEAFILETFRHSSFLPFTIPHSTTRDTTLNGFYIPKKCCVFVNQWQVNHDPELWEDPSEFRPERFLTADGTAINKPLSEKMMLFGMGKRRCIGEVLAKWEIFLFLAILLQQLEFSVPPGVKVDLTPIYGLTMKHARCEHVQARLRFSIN

In test [2] the target is Voltage-dependent T-type calcium channel subunit alpha-1H (Homo sapiens, UniProt O95180). Format: functional.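 Note: channel activity triggered by adding a high calcium stimulation buffer.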
The target in the next test is Cytochrome P450 2D6 (Homo sapiens, UniProt P10635).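 Note: CYP2D6 member of a cytochrome P450 panel assay.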
In test [3] the target is T2, E3 ubiquitin-protein ligase XIAP (Homo sapiens, UniProt P98170). The experiment in a line: XIAP antagonists, biochemical, IAP family, fluorescence polarization (AID 1018). Format: functional. Background: Fluorescence polarisation rises when a labelled molecule tumbles more slowly, as on binding a larger partner.
The target of test [4] is T2, E3 ubiquitin-protein ligase XIAP. The experiment in a line: Counter Screen using XIAP-Bir3 for Chemical Antagonists of Bir1/2 domains of IAP-family anti-apoptotic proteins. [Related pubchem assays (depositor defined):AID1018, AID1449, AID1514, AID1638, AID1749, AID1750, AID488957, AID488963]. (In general: A counterscreen serves to expose hits that act by an unwanted route or on another target.)

In test [5] the target is T3, Endoribonuclease toxin MazF (Escherichia coli K-12, UniProt P0AE70).
T3 sequence (P0AE70 whole entry): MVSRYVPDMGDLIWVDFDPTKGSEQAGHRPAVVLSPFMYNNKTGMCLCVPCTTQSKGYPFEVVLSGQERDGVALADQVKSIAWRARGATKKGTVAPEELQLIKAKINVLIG
As to the kind of experiment: fluorescent RNA oligo signal without MazF, dose response, counter-screen for MazEF activator project, biochemical, fluorescence, single-stranded RNase substrate (AID 588502). In kind it is functional.

Test [6] has as its target T4, Zinc finger protein mex-5 (Caenorhabditis elegans, UniProt Q9XUB2).
T4 sequence (Q9XUB2 whole entry): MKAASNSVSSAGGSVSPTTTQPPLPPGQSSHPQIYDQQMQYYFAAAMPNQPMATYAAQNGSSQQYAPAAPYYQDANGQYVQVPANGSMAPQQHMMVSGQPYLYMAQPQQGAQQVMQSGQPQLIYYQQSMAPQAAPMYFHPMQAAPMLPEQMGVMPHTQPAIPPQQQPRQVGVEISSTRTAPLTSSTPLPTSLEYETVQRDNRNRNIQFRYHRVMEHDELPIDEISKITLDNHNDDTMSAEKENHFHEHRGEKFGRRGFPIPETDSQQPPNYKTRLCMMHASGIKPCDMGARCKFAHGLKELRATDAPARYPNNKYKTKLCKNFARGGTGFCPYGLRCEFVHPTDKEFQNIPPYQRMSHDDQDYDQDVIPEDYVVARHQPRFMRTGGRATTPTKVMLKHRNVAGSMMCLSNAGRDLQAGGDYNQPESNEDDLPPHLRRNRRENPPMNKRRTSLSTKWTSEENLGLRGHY
As to the kind of experiment: MEX-5/TCR-2 RNA interaction inhibitors, dose response, biochemical, C. elegans, fluorescence polarization (AID 1960).

Test [7] deals with T5, RNA-binding protein pos-1 (Caenorhabditis elegans, UniProt G5EF15).
T5 sequence (G5EF15 whole entry): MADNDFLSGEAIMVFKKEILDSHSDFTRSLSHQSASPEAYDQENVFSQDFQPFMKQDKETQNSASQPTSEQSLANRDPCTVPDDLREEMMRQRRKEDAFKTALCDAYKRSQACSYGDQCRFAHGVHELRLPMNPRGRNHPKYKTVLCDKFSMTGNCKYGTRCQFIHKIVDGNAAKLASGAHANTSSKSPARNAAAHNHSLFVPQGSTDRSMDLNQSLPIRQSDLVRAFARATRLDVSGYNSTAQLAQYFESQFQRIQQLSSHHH
As to the kind of experiment: inhibitors of POS-1/mex-3 RNA binding, dose response, biochemical, fluorescence polarization (AID 1964).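 Note: purified POS-1 fused to maltose binding protein made in E. coli; potency of compounds blocking POS-1 binding to fluorescent RNA.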

The target of test [8] is T3, Endoribonuclease toxin MazF. As to the kind of experiment: MazF toxin RNase activators, dose response, biochemical, fluorescence, single-stranded RNA substrate, uHTS hits (AID 588481). Format: functional.
Test [9] deals with T6, Corticotropin-releasing factor receptor 2/Corticotropin-releasing factor-binding protein (Homo sapiens, UniProt P24387+Q13324).
T6 sequence (Q13324 whole entry): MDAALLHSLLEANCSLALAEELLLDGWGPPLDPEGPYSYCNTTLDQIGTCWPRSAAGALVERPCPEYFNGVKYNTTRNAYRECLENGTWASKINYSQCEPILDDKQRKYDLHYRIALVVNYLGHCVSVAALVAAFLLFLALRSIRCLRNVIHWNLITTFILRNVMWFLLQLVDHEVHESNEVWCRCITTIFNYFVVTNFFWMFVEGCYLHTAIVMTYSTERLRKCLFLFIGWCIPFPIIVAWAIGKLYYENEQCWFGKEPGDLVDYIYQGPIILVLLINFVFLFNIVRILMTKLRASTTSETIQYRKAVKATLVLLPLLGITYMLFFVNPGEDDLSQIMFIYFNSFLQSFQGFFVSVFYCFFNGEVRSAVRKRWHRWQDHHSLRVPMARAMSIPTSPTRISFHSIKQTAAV
T6 sequence (P24387 whole entry): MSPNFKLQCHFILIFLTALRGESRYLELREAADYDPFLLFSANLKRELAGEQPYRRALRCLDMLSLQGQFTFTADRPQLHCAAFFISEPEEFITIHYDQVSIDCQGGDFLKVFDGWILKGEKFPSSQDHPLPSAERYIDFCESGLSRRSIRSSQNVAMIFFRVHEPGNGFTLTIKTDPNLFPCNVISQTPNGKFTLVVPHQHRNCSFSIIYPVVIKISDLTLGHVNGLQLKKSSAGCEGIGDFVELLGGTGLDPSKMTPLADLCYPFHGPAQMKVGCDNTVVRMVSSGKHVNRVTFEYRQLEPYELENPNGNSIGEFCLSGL
The experiment in a line: activators of CRF receptor 2 with binding protein – uHTS hits, confirmation (AID 602473). Format: functional. Particulars: read-out: EC50_Mean.

For test [10], the target named is T7, DNA repair protein RAD52 homolog (Homo sapiens, UniProt P43351).
T7 sequence (P43351 whole entry): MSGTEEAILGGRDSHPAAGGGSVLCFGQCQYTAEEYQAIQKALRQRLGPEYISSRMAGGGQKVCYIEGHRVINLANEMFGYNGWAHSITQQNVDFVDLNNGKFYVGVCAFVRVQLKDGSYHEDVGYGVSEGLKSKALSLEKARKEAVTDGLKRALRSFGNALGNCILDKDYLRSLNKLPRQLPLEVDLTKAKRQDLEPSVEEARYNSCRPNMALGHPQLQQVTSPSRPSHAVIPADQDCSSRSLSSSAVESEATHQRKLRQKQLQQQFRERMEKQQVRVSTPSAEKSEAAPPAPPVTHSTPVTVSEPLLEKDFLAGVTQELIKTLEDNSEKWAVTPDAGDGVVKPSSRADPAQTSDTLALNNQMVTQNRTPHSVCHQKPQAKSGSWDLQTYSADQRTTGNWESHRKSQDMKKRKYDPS
Format: functional, biochemical.

Test [11] is described as follows: A cytotoxicity screen of small molecule inhibitors of the PhoP region in Salmonella typhi identified in the primary screen. [Related pubchem assays: 1850, 1864, 1985 ]. In kind it is functional.
Test [12] in a line: inhibitors of intracellular T. cruzi replication, confirmation, NIH3T3 host cells, beta-gal luminescence (AID 2044).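 Note: intracellular parasites grown in NIH/3T3 mouse fibroblasts as host cells; luminescent beta-galactosidase reporter signal from transgenic T. cruzi replicating inside host cells; inhibitors lower the luminescence signal.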 In kind it is functional, cell-based.
The nature of test [13]: cytotoxicity toward NIH3T3 fibroblasts, dose response, counter-screen, cell-based, ATP luminescence, mouse fibroblasts (AID 2010).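 Note: cells exposed to compound for about 90 hours before reading.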 In kind it is functional.

Results on 18 compounds are retold here after ChEMBL document CHEMBL1201862, “PubChem BioAssay data set” (2004).

The source made the active and inactive calls.

In general, CC50 refers to the concentration that lowers cell viability or growth by half. By AC50 is commonly meant the midpoint of the concentration-response curve, whichever way the signal moves. One may read the IC50 as the point on the concentration scale where inhibition reaches its midpoint.

Chain of Voltage-dependent T-type calcium channel subunit alpha-1H (O95180 whole entry): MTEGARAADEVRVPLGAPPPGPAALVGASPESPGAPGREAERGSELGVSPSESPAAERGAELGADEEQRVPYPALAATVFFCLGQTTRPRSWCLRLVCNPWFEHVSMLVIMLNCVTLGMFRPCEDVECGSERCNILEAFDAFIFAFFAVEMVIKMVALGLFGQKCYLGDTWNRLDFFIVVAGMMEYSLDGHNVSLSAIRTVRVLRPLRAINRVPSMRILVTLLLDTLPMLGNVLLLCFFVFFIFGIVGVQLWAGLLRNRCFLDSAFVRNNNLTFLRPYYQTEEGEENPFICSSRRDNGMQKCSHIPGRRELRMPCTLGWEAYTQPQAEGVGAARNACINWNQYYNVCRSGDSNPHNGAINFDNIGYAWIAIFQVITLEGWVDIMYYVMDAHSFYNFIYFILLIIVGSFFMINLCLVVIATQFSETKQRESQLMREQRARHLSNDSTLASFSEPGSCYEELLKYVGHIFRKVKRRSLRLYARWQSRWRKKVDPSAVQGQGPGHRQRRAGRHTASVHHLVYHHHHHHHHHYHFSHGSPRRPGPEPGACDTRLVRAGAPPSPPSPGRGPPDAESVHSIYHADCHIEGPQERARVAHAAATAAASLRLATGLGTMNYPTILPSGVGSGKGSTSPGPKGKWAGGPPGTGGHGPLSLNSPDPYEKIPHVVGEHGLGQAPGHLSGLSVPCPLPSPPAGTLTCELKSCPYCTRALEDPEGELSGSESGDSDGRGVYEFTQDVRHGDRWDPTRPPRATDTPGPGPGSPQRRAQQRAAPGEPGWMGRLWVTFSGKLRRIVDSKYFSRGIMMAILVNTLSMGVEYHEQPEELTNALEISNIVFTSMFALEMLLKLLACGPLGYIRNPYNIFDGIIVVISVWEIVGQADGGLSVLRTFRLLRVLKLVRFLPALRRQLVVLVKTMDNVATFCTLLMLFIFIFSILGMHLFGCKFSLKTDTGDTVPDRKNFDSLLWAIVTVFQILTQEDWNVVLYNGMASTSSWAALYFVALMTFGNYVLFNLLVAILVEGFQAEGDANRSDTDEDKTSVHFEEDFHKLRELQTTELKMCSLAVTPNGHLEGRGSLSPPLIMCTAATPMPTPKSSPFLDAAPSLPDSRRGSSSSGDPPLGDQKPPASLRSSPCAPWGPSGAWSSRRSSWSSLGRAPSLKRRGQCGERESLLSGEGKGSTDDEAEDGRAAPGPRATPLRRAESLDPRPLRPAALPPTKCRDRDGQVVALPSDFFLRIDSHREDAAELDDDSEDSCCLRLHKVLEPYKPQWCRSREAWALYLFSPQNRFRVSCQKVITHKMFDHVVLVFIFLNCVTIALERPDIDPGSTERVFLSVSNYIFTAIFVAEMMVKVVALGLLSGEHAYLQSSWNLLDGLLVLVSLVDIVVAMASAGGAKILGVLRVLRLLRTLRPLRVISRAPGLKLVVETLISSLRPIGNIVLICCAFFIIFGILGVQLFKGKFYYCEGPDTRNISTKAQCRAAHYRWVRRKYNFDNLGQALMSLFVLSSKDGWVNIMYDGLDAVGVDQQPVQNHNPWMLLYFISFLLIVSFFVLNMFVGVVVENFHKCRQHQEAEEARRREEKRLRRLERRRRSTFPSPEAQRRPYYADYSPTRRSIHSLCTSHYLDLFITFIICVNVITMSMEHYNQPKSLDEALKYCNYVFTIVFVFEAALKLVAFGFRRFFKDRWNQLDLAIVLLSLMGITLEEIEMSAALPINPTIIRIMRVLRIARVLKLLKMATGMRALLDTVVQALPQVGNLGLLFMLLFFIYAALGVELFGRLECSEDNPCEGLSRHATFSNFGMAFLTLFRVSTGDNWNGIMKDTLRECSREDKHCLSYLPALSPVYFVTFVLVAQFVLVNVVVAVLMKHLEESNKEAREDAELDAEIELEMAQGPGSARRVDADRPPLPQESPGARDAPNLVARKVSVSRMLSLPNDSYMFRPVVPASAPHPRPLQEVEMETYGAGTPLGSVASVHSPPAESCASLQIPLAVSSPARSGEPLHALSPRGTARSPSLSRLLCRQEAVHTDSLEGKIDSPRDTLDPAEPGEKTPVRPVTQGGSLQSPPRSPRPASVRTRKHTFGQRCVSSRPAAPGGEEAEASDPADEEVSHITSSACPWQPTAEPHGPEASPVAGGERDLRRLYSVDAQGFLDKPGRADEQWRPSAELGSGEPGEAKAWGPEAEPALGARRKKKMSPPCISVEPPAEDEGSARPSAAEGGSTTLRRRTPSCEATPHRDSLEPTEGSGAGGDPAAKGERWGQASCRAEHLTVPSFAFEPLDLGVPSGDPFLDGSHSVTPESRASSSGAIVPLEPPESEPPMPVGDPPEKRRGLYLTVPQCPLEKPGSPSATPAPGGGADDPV
T2 sequence (P98170 whole entry): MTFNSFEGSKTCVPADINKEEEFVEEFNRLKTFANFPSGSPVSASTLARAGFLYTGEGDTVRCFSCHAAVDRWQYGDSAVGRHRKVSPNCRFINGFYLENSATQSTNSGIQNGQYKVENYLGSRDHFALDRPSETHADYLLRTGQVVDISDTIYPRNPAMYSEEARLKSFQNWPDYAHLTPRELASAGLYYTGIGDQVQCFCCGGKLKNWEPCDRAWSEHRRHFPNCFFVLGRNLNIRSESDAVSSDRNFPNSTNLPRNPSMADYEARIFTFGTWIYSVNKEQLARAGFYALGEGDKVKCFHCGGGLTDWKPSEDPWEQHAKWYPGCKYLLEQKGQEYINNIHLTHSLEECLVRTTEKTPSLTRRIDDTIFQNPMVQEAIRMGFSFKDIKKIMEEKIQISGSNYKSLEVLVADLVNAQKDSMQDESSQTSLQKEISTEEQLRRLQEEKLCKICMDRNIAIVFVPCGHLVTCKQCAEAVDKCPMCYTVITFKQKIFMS
Chain of Cytochrome P450 2D6 (P10635 whole entry): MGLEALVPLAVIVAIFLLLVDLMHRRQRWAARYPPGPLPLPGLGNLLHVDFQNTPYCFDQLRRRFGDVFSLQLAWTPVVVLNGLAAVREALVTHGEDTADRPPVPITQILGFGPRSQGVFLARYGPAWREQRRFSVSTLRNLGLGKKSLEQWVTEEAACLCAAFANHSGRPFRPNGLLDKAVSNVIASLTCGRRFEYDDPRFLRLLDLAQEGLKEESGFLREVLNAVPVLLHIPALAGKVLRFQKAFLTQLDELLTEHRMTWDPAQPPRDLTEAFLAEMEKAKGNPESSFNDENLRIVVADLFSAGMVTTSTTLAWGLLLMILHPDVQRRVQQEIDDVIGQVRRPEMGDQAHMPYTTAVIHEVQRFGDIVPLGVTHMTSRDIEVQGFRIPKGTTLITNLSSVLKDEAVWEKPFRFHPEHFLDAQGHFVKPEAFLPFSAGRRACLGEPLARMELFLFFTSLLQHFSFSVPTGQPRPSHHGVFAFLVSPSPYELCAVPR
Chain of Cytochrome P450 2C9 (P11712 whole entry): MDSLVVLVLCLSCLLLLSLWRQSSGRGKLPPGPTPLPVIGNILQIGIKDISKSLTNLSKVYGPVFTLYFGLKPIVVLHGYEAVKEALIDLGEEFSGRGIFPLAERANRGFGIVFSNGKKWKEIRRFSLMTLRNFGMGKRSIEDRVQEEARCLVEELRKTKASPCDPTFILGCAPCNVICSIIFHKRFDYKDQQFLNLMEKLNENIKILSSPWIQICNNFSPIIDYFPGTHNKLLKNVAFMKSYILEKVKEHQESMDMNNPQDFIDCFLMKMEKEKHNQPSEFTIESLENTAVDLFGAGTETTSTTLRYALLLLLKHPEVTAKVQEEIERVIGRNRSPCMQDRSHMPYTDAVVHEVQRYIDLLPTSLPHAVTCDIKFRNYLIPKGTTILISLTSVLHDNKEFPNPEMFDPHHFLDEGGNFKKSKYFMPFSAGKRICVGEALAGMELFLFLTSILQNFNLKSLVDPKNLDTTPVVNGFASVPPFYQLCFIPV
Chain of Cytochrome P450 2C19 (P33261 whole entry): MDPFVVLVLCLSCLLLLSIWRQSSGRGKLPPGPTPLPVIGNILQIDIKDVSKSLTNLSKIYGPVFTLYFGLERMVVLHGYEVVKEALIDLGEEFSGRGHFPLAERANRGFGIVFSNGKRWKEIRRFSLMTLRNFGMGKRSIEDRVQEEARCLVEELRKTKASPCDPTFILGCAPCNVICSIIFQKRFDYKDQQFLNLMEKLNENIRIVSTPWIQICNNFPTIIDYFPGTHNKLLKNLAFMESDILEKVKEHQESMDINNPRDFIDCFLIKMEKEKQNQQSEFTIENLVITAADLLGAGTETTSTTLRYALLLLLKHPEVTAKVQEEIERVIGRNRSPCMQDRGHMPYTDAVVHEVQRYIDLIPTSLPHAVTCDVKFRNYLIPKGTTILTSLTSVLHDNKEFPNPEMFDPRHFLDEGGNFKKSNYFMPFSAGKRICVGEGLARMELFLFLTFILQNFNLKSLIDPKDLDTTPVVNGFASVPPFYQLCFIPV

As for `Cc1ccc2[nH]c(SCc3ccc([N+](=O)[O-])cc3)nc2c1`, in test [1], the CC50 is 13.6 µM (active). Further, the half-maximal activity concentration (AC50) was 3.55 µM (active) at Cytochrome P450 2C9, 0.794 µM (active) at Cytochrome P450 2C19, 1.12 µM (active) at Cytochrome P450 1A2 and 5.01 µM (active) on Cytochrome P450 2D6. The EC50 in test [2] is 4.41 µM (active).

`COC(=O)c1cc2sccc2n1Cc1nc(-c2cccc(Cl)c2)oc1C`: the IC50 was > 100 µM (not active) in test [3] and > 100 µM (inactive) in test [4].

Take `CC1(C(=O)N(c2ccccc2)C(C(=O)NC2CCCC2)c2ccccn2)CC(=O)N=C2C=CC=CN21` (stereo unspecified): the IC50 is > 100 µM (not active) in test [3] and > 100 µM (inactive) in test [4].

Regarding `Cc1cc(O)nc(NN=C(CC(C)C)CC(C)C)n1`, the IC50 in test [3] was > 100 µM (not active); in [4], > 100 µM (inactive).

Consider `CC1=CC(=C2N=C(c3ccccc3)OC2=O)C=C(C)O1`, for which the EC50 in [5] was > 99 µM (inactive); in [6], 12.3 µM (inconclusive); in [7] it was 142 µM (inconclusive); in [8], > 99 µM (inactive).

`Cc1cc(NC(=O)CSc2c(C)[nH]c3ccccc23)no1`: in test [2], the EC50 is 5.22 µM (active).

With `Cn1cc(C=C2C(=O)NC(=O)NC2=O)c2ccccc21`, the EC50 in test [5] was 21.1 µM (inactive); in test [6] it was 5.82 µM (inconclusive); in [9], 24.1 µM (active); in test [7], 6.99 µM (inconclusive); in test [8] it was > 99 µM (inactive).

In the case of `CSc1nc(NCCCN(C)C)c2c3c(sc2n1)CN(C)CC3`, the concentration at half-maximal activity (AC50) in test [10] was 10.1 µM (active).

Consider `Cc1ccc(C)c(Cn2c(CO)nc3ccccc32)c1`, for which the EC50 in [2] is 2.68 µM (active).

Regarding `Cc1ccc2c(c1)NC(=O)C(CC(=O)O)O2` (stereo unspecified), the half-inhibitory concentration (IC50) in test [3] was > 100 µM (not active); in test [4] it was > 100 µM (inactive).

As for `CCCCCCOc1ccc(CN2CCN(CC)CC2)cc1`, the EC50 in test [11] was > 50 µM (active); in test [12] it was 0.752 µM (active); in [13], > 30 µM (not active).

In the case of `COCCN=C(S)Nc1ccc2nc(N3CCN(C)CC3)cc(C)c2c1`, in test [10], the AC50 was 13.2 µM (active).

As for `COc1cccc(C(c2nnnn2CCc2ccccc2)N2CCN(c3ccccc3)CC2)c1OC` (stereo unspecified), the EC50 in [2] is 0.986 µM (active).

As to `O=C(COc1cccc2ccccc12)NNC(=O)CSCCO`, the IC50 is > 100 µM (not active) in test [3] and > 100 µM (inactive) in [4].

In the case of `Cc1cc(Cl)c(S(=O)(=O)Nc2ccc3c(c2)OCO3)cc1OCC(=O)NC1CCCCC1`, the EC50 in test [2] was 2.06 µM (active).

In the case of `COC(=O)c1ccccc1NC(=O)Cn1cnc2c(cnn2-c2ccccc2)c1=O`, the EC50 in test [5] and in [8] was > 99 µM (inactive) in each case.

In the case of `Oc1ccccc1C=NN=Cc1c(O)ccc2ccccc12`, the EC50 in [5] was > 99 µM (inactive); in test [9], 5.17 µM (active); in test [8] it was > 99 µM (inactive).

In the case of `Clc1cccc(/C(Cc2nc3ccccc3[nH]2)=N\Nc2ccccc2)c1`, the EC50 in test [5] and in [8] was > 99 µM (inactive) each time.
